Here are results for 14 compounds from PubChem BioAssay (NCI).

“And” between values parts separate entries of the source, which are not always exact repeats. Equal values may be shown once.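 The compound was tested at five concentrations on cells cultured in 96-well plates, with a 48-hour exposure period. GI50 is the concentration that inhibits growth by half. TGI is the concentration that stops growth completely.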

Holding throughout (test): NCI-60 cell line screen, 48 h
Assay [1] has as its system CAKI-1 renal.
The subject of assay [2] is DU-145 prostate.
For assay [3], the system named is EKVX NSCLC.
Assay [4] concerns IGROV1 ovarian.
Assay [5] has as its system K-562 leukemia.
The test system of assay [6] is M14 melanoma.
The test system of assay [7] is OVCAR-5 ovarian.
Assay [8] concerns SF-268 CNS.
The test system of assay [9] is SNB-19 CNS.
Assay [10] has as its system MALME-3M melanoma.

As for `COc1ccc(OC)c(/C=N/NC(=O)Cc2csc3nc(-c4ccc(Br)cc4)cn23)c1`, the GI50 is 12.6 µM in [1]; 17.9 µM in assay [2]; 17.1 µM in assay [3]; 4.02 µM in [4]; 2.94 µM in assay [5]; 15.1 µM in assay [6]. Also, the figures for the GI50 in [7], in assay [8] and in assay [9] were 50.2 µM, above 100 µM and 31.4 µM, respectively. The TGI was determined as 34.2 µM in assay [1]; 48 µM in assay [2]; 57.6 µM in assay [3]; 26.7 µM in assay [4]; 6.94 µM in [5]; 72.1 µM in [6]. For the same compound, the TGI in [7], in assay [8] and in assay [9] was above 100 µM throughout.

For `COc1cc(C2c3[nH]c4ccccc4c3C[C@H]3COC(=O)N23)cc(OC)c1OC` (stereo partly drawn), the GI50 in assay [1] is below 0.01 µM; in assay [4] it was 0.0655 µM and < 0.01 µM; in assay [5], below 0.01 µM; in assay [10], below 0.01 µM; in [8], below 0.01 µM. Besides, the TGI in [1] was above 100 µM; in assay [2], 6.25 µM; in assay [3], above 100 µM; in assay [4], above 100 µM; in assay [5] it was 1.13 µM; in assay [6], 8.97 µM. The TGI in assay [10] is above 100 µM; in [8] it was above 100 µM; in assay [9], 3.16 µM.

With `CCCCC[C@H](O)/C=C/[C@@H]1[C@@H](C/C=C\CCCC(=O)O)[C@@H](O)C[C@H]1O`, the GI50 in [1], in assay [2], in assay [3], in assay [4], in assay [5] and in assay [10] was above 100 µM throughout. Moreover, the GI50 in assay [7], in assay [8] and in assay [9] was above 100 µM each time. Besides, the TGI in assay [1], in assay [2], in [3], in [4], in assay [5] and in assay [10] was above 100 µM each time. For the same compound, the TGI in assay [7], in [8] and in assay [9] was above 100 µM in each case.

`C=CC[n+]1c(/C=C/C=C2\N(C)c3ccccc3C2(C)C)sc2ccc(OC)cc21`: the GI50 in assay [2] is 0.34 µM; in [3], 0.264 µM; in [4] it was 0.521 µM; in assay [5], 0.165 µM; in [6], 0.331 µM; in assay [10], 0.188 µM. In addition, the GI50 in assay [7] is 0.504 µM; in assay [8], 0.321 µM; in assay [9], 0.289 µM. Further, the TGI in assay [2] is 15.6 µM; in assay [3] it was 15.5 µM; in assay [4], 21.6 µM; in assay [5], 12.8 µM; in assay [6] it was 2.59 µM; in assay [10], 0.733 µM. The TGI in [7] was found to be 14.9 µM; in assay [8] it was 19.6 µM; in assay [9], 14.4 µM.

On to `O=C(NC1CCN(Cc2ccccc2)CC1)c1cc(-c2ccncc2)nc2ccc(Cl)cc12`, for which the GI50 in assay [1] is 5.43 µM; in assay [2], 20.1 µM; in assay [4], 18.5 µM; in assay [5] it was 3.78 µM; in assay [6], 7.02 µM; in [10] it was 9.39 µM. The GI50 in assay [7] was 13.9 µM; in assay [8] it was 22.6 µM; in assay [9], 26.3 µM. The TGI in [1] was above 50.5 µM; in assay [2], 63.1 µM; in [4], above 100 µM; in assay [5], 27.3 µM; in assay [6], 34.9 µM; in assay [10], 26.9 µM. Further, the TGI in assay [7], in [8] and in assay [9] was above 100 µM in each case.

Regarding `COc1ccccc1NC(=O)c1sc2nc3c(cc2c1N)C(=O)CCC3`, the GI50 in assay [2] is above 100 µM; in [4], 8.15 µM; in assay [5] it was 1.53 µM; in [6] it was 2.86 µM; in assay [10], 1.75 µM; in [8], 5.06 µM. Also, the GI50 in [9] is 12.8 µM. Besides, the TGI in assay [2], in assay [4], in assay [5], in [6], in assay [10] and in assay [8] was above 100 µM in each case. Moreover, the TGI in assay [9] is above 100 µM.

Take `Cc1nc(-c2cccc(Nc3nc(-c4ccc(Cl)cc4)cs3)c2)cs1`: the GI50 in [1] was 11.8 µM; in assay [2] it was 9.73 µM; in assay [3], 8.6 µM; in assay [4], 15.9 µM; in assay [5], 8.06 µM; in assay [6], 9.72 µM. Besides, the GI50 in assay [8] was 10.4 µM; in [9], 12.8 µM. The TGI in assay [1] came out at 24.6 µM; in assay [2], 18.4 µM; in assay [3] it was 17.2 µM; in [4], 32.7 µM; in [5] it was 21.4 µM; in [6], 19.6 µM. In addition, the TGI was 24.2 µM in [8] and 28.9 µM in [9].

As for `Clc1ncnc(Cl)c1Cl`, the TGI in assay [1], in assay [2], in [4], in assay [5], in assay [6] and in assay [10] was above 100 µM in each case. Moreover, the TGI in assay [7], in assay [8] and in assay [9] was above 100 µM throughout.

For the compound `Nc1ccc2c(c1)C(=O)C(=O)c1c-2nc2ccccn12`, the GI50 in [2] was 0.556 µM; in assay [3] it was 2.04 µM; in assay [4], 1.52 µM; in assay [5], 1.09 µM; in assay [6] it was 0.281 µM; in assay [10] it was 0.271 µM. Besides, the results for the GI50 in assay [7] and in assay [9] were 1.92 µM and 1.64 µM, respectively. The TGI in assay [2] was found to be 1.79 µM; in [3], 4.52 µM; in assay [4] it was 3.55 µM; in assay [5], 3.88 µM; in assay [6] it was 0.741 µM; in assay [10], 0.572 µM. For the same compound, the TGI in [7] is 3.57 µM; in [9] it was 3.23 µM.

With `O=C(O)C/C(=C\c1ccco1)C(=O)O`, the TGI in assay [1], in assay [2], in assay [3], in assay [4], in [5] and in [6] was above 100 µM each time. The TGI in assay [10], in [7] and in [9] was above 100 µM each time.

As for `Cc1ccc(S(=O)(=O)OC2CCN(C)CC2)cc1`, the TGI in [2] is above 100 µM; in assay [3], above 100 µM; in assay [4], above 100 µM; in assay [5], 40.4 µM; in assay [6], above 100 µM; in assay [10], 37.9 µM. Moreover, the TGI in assay [7], in assay [8] and in assay [9] was above 100 µM throughout.

For `Nc1c(C(=O)c2cccc(CCCN3CCOCC3)c2)cnn1-c1ccc(F)cc1`, the GI50 in assay [1], in [2], in [4], in assay [5], in assay [6] and in assay [10] was above 25 µM throughout. Also, the GI50 in [7], in assay [8] and in assay [9] was above 25 µM each time. Moreover, the TGI in [1], in assay [2], in assay [4], in assay [5], in assay [6] and in assay [10] was above 25 µM each time. Moreover, the TGI in [7], in assay [8] and in assay [9] was above 25 µM in each case.

As for `O=C1C(Cl)=C(Nc2cccc(Cl)c2)C(=O)N1Cc1ccccc1`, the GI50 in assay [1] was 5.06 µM; in assay [2], 15.3 µM; in [4], 8.15 µM; in [5] it was 2.9 µM; in assay [6] it was 6.73 µM; in [10], 5.12 µM. In addition, the GI50 in [7] was 9.49 µM; in assay [8], 6.76 µM; in assay [9], 14.5 µM. Besides, the TGI in [1] is 27.7 µM; in assay [2], 30.6 µM; in assay [4], above 100 µM; in [5], above 100 µM; in assay [6], 22.5 µM; in assay [10], 20.1 µM. The TGI came out at 33.1 µM in assay [7], 22.2 µM in assay [8] and 55.1 µM in assay [9].

As to `CCNC(=O)[C@@H]1CCCN2C(=O)CC[C@H](NC(=O)[C@H](Cc3ccc(OP(=O)(O)O)cc3)NC(C)=O)C(=O)N12`, the GI50 in assay [1], in assay [2], in assay [4], in [5], in [6] and in [10] was above 25 µM each time. Besides, the GI50 in [7], in assay [8] and in [9] was above 25 µM throughout. For the same compound, the TGI in [1], in assay [2], in [4], in assay [5], in [6] and in assay [10] was above 25 µM each time. The TGI in assay [7], in assay [8] and in assay [9] was above 25 µM throughout.
